Values quoted from earlier work as cited in patent publication US20240189234A1, “SILICON PARTICLES FOR DRUG DELIVERY” (NACAMED AS, priority 2021, published 2024).

Settings: calculated log P values from Foye's Principles of Medicinal Chemistry

SMILES | log P
CC[C@H]1CN2CCc3cc(OC)c(OC)cc3[C@@H]2C[C@@H]1C[C@H]1NCCc2cc(OC)c(OC)cc21 [Emetine] | 3.82
NCCCC[C@H](N[C@@H](CCc1ccccc1)C(=O)O)C(=O)N1CCC[C@H]1C(=O)O [Lisinopril] | 3.47
CN(C)CCC=C1c2ccccc2CCc2ccccc21 [amitriptyline] | 4.41
c1ccc(CN(CC2=NCCN2)c2ccccc2)cc1 [antazoline] | 3.58
CNCC[C@@H](Oc1ccccc1C)c1ccccc1 [atomoxetine] | 3.36
CCOC(=O)OC(C)OC(=O)[C@@H]1N2C(=O)[C@@H](NC(=O)[C@H](N)c3ccccc3)[C@H]2SC1(C)C (some centres unmarked) [bacampicillin] | 3.52
Cc1ccc(C(=O)Oc2ccc(C(O)CNC(C)(C)C)cc2OC(=O)c2ccc(C)cc2)cc1 (centres unmarked) [bitolterol] | 4.16
COc1ccccc1Oc1c(NS(=O)(=O)c2ccc(C(C)(C)C)cc2)nc(-c2ncccn2)nc1OCCO [bosentan] | 4.36
CN(C)CCOC(c1ccccc1)c1ccc(Br)cc1 (centres unmarked) [bromodiphenhydramine] | 4.03
CN(C)CCC(c1ccc(Br)cc1)c1ccccn1 (centres unmarked) [brompheniramine] | 3.24
CCCCN1CCCCC1C(=O)Nc1c(C)cccc1C (centres unmarked) [bupivacaine] | 3.31
CCCCN(CCCC)CCCOC(=O)c1ccc(N)cc1 [butacaine] | 4.62
Oc1ccc2c(c1)[C@@]13CCCC[C@@]1(O)[C@@H](C2)N(CC1CCC1)CC3 [butorphanol] | 3.54
CC1(C)[C@@H](OC(=O)CCC(=O)O)CC[C@]2(C)[C@H]3C(=O)C=C4[C@@H]5C[C@@](C)(C(=O)O)CC[C@]5(C)CC[C@@]4(C)[C@]3(C)CC[C@@H]12 [carbenoxolone] | 6.63
CN(C)CCCN1c2ccccc2Sc2ccc(Cl)cc21 [chlorpromazine] | 5.35
CN(C)CC/C=C1/c2ccccc2Sc2ccc(Cl)cc21 [chlorprothixene] | 5.31
C=C[C@H]1C[N@@]2CC[C@H]1C[C@@H]2[C@@H](O)c1ccnc2ccccc12 [cinchonine] | 3.69
CCOC(=O)C(C)(C)Oc1ccc(Cl)cc1 [clofibrate] | 3.88
Clc1ccccc1C(c1ccccc1)(c1ccccc1)n1ccnc1 [clotrimazole] | 4.92
C[C@H]1[C@H]2Cc3ccc(O)cc3[C@]1(C)CCN2CC1CC1 [cyclazocine] | 3.52
CN(C)CCC=C1c2ccccc2C=Cc2ccccc21 [cyclobenzaprine] | 6.19
CN1CCC(=C2c3ccccc3C=Cc3ccccc32)CC1 [cyproheptadine] | 4.92

SMILES | log P
COC(=O)[C@H]1[C@H]2C[C@@H]3c4[nH]c5ccccc5c4CCN3C[C@H]2C[C@@H](OC(=O)c2cc(OC)c(OC)c(OC)c2)[C@@H]1OC [deserpidine] | 4.95
CCN[C@@H](C)Cc1cccc(C(F)(F)F)c1 [dextrofenfluramine] | 3.55
COc1ccc2c(c1)[C@]13CCCC[C@@H]1[C@H](C2)N(C)CC3 [dextromethorphan] | 3.89
CN(C)CCN1C(=O)c2ccccc2N(C)c2ccccc21 [dibenzepin] | 3.26
CCCCOc1cc(C(=O)NCCN(CC)CC)c2ccccc2n1 [dibucaine] | 4.40
Cc1onc(-c2c(Cl)cccc2Cl)c1C(=O)N[C@@H]1C(=O)N2[C@@H]1SC(C)(C)[C@@H]2C(=O)O [dicloxacillin] | 3.10
CCN(CC)CCOC(=O)C1(C2CCCCC2)CCCCC1 [dicyclomine] | 4.64
CCN(CC)CCN1c2ccccc2Sc2ccccc21 [diethazine] | 5.55
O=C(O)c1cc(-c2ccc(F)cc2F)ccc1O [diflunisal] | 3.65
CC(C)[C@@]1(NC(=O)[C@@H]2C[C@@H]3c4cccc5[nH]cc(c45)C[C@H]3N(C)C2)O[C@@]2(O)[C@@H]3CCCN3C(=O)[C@H](Cc3ccccc3)N2C1=O [dihydroergocristine] | 6.55
CN1C[C@H](C(=O)N[C@]2(C)O[C@@]3(O)[C@@H]4CCCN4C(=O)[C@H](Cc4ccccc4)N3C2=O)C[C@@H]2c3cccc4[nH]cc(c34)C[C@H]21 [dihydroergotamine] | 5.69
CCCCc1cc2ccccc2c(OCCN(C)C)n1 [dimethisoquin] | 4.04
O=C(Nc1ccccc1)OCC(CN1CCCCC1)OC(=O)Nc1ccccc1 (centres unmarked) [diperodon] | 4.65
N#CC(CCN1CCC(C(=O)O)(c2ccccc2)CC1)(c1ccccc1)c1ccccc1 [diphenoxin] | 3.97
CN1CCC(OC(c2ccccc2)c2ccccc2)CC1 [diphenylpyraline] | 3.43
CCC(=O)C(CC(C)N1CCCCC1)(c1ccccc1)c1ccccc1 (centres unmarked) [dipipanone] | 5.10
CN(C)CCC=C1c2ccccc2COc2ccccc21 [doxepin] | 3.85
O=C(CCCN1CC=C(n2c(=O)[nH]c3ccccc32)CC1)c1ccc(F)cc1 [droperidol] | 3.10
CCN(CC)C(=O)/C(C#N)=C/c1cc(O)c(O)c([N+](=O)[O-])c1 [entacapone] | 3.02
CN1C[C@H](C(=O)N[C@]2(C)O[C@@]3(O)[C@@H]4CCCN4C(=O)[C@H](Cc4ccccc4)N3C2=O)C=C2c3cccc4[nH]cc(c34)C[C@H]21 [ergotamine] | 7.37
C[C@]12CC[C@@H]3c4ccc(O)cc4CC[C@H]3[C@@H]1CCC2=O [estrone] | 3.62
CCN(CC)C(C)CN1c2ccccc2Sc2ccccc21 (centres unmarked) [ethopropazine] | 4.77

SMILES | log P
CCCN(CC)C(CC)C(=O)Nc1c(C)cccc1C (centres unmarked) [etidocaine] | 3.57
O=C(O)Cc1ccccc1Oc1ccc(Cl)cc1Cl [fenclofenac] | 4.59
CCNC(C)Cc1cccc(C(F)(F)F)c1 (centres unmarked) [fenfluramine] | 3.55
CC(C(=O)O)c1cccc(Oc2ccccc2)c1 (centres unmarked) [fenoprofen] | 3.72
CC(C)C(=O)Oc1ccc(CO)cc1[C@H](CCN(C(C)C)C(C)C)c1ccccc1 [fesoterodine] | 5.08
CC(C)(C)NC(=O)[C@H]1CC[C@H]2[C@@H]3CC[C@H]4NC(=O)C=C[C@]4(C)[C@H]3CC[C@]12C [finasteride] | 3.83
O=C(O)c1ccccc1Nc1cccc(C(F)(F)F)c1 [flufenamic acid] | 5.22
COc1ccc(-c2nc(C(F)(F)F)[nH]c2-c2ccc(OC)cc2)cc1 [flumizole] | 4.26
CNCCC(Oc1ccc(C(F)(F)F)cc1)c1ccccc1 (centres unmarked) [fluoxetine] | 3.93
OCCN1CCN(CC/C=C2/c3ccccc3Sc3ccc(C(F)(F)F)cc32)CC1 [flupenthixol] | 3.67
CCCCCCC(=O)OCCN1CCN(CCCN2c3ccccc3Sc3ccc(C(F)(F)F)cc32)CC1 [fluphenazine enanthate] | 7.29
CCN(CC)CCN1C(=O)CN=C(c2ccccc2F)c2cc(Cl)ccc21 [flurazepam] | 4.84
CC(C(=O)O)c1ccc(-c2ccccc2)c(F)c1 (centres unmarked) [flurbiprofen] | 3.66
CC(C)C(=O)Nc1ccc([N+](=O)[O-])c(C(F)(F)F)c1 [flutamide] | 3.52
CC(=O)O[C@H]1C[C@@]2(C)[C@@H](C[C@@H](O)[C@H]3[C@@]4(C)CC[C@@H](O)[C@@H](C)[C@@H]4CC[C@@]32C)/C1=C(\CCC=C(C)C)C(=O)O [fusidic acid] | 5.76
COc1ccc(Cl)cc1C(=O)NCCc1ccc(S(=O)(=O)NC(=O)NC2CCCCC2)cc1 [glibenclamide] | 3.08
O=C(CCCN1CCC(O)(c2ccc(Cl)cc2)CC1)c1ccc(F)cc1 [haloperidol] | 3.76
CC(CNC1CCCCC1)OC(=O)c1ccccc1 (centres unmarked) [hexylcaine] | 3.65
CCN(CC)CCNc1ccc(CO)c2sc3ccccc3c(=O)c12 [hycanthone] | 3.81
CCc1cc2c(cc1CC)CC(NC[C@H](O)c1ccc(O)c3[nH]c(=O)ccc13)C2 [indacaterol] | 3.88
CC(=O)N(CC(C)C(=O)O)c1c(I)cc(I)c(N)c1I (centres unmarked) [iocetamic acid] | 4.57
O=C(CCCCC(=O)Nc1c(I)cc(I)c(C(=O)O)c1I)Nc1c(I)cc(I)c(C(=O)O)c1I [iodipamide] | 5.10

SMILES | log P
CCC(Cc1c(I)cc(I)c(N)c1I)C(=O)O (centres unmarked) [iopanoic acid] | 4.65
CCCCC1=NC2(CCCC2)C(=O)N1Cc1ccc(-c2ccccc2-c2nnn[nH]2)cc1 [irbesartan] | 5.25
CNC1(c2ccccc2Cl)CCCCC1=O (centres unmarked) [ketamine] | 3.01
C=CCN1CC[C@]23CCCC[C@H]2[C@H]1Cc1ccc(O)cc13 [levallorphan] | 3.85
CN1CC[C@]23CCCC[C@H]2[C@H]1Cc1ccc(O)cc13 [leverphanol] | 3.26
N[C@@H](Cc1cc(I)c(Oc2ccc(O)c(I)c2)c(I)c1)C(=O)O [liothyronine] | 3.91
CN(C)C(=O)C(CCN1CCC(O)(c2ccc(Cl)cc2)CC1)(c1ccccc1)c1ccccc1 [loperamide] | 4.15
CCCCc1nc(Cl)c(CO)n1Cc1ccc(-c2ccccc2-c2nn[nH]n2)cc1 [losartan] | 3.46
CNCCCC12CCC(c3ccccc31)c1ccccc12 [maprotiline] | 4.36
Cc1ccc(Cl)c(Nc2ccccc2C(=O)O)c1Cl [meclofenamic acid] | 5.44
CN1CCN=C(c2ccccc2)c2cc(Cl)ccc21 [medazepam] | 3.89
Cc1cccc(Nc2ccccc2C(=O)O)c1C [mefenamic acid] | 4.83
CN1CCCC(CN2c3ccccc3Sc3ccccc32)C1 (centres unmarked) [mepazine] | 5.04
CN1CCC(CN2c3ccccc3Sc3ccccc32)C1 (centres unmarked) [methdilazine] | 4.64
COc1ccc2c(c1)N(C[C@H](C)CN(C)C)c1ccccc1S2 [methotrimeprazine] | 4.94
Cc1ccccc1N1C(=O)c2cc(S(N)(=O)=O)c(Cl)cc2NC1C (centres unmarked) [metolazone] | 3.16
Clc1ccc(COC(Cn2ccnc2)c2ccc(Cl)cc2Cl)c(Cl)c1 (centres unmarked) [miconazole] | 4.97
Cc1ncc2n1-c1ccc(Cl)cc1C(c1ccccc1F)=NC2 [midazolam] | 3.80
CCCCCCC(C)(C)c1cc(O)c2c(c1)OC(C)(C)C1CCC(=O)CC21 (centres unmarked) [nabilone] | 7.25
OC(CNCC(O)C1CCc2cc(F)ccc2O1)C1CCc2cc(F)ccc2O1 (centres unmarked) [nebivolol] | 4.08
